Molecules are shown by their SMILES.

The target of the experiment is T1, Trx-6×His-BCL6 (human BCL6 BTB domain covering amino-acid sequence 5-129) (Homo sapiens, UniProt P41182).
T1 construct: made in house
The experiment is described as follows: HTRF assay (BCL6 / BCOR peptide). Type of experiment: binding. As to conditions: 1 nM Trx-6×His-BCL6, 300 nM BCOR-AF633 peptide, 2 hours incubation at room temperature; for IC50: read-out: HTRF avg pIC50 (converted). Here is the method: After 2 hours incubation at room temperature the plate was read on a Pherastar FSX (BMG Labtech) plate reader equipped with 337 nm laser excitation filter, a first emission filter at 620 nm and a second emission filter at 665 nm. The % inhibition at each concentration was calculated by normalising FRET ratio to the appropriate high (DMSO with all reagents) and low (DMSO without BCL6) controls.

Take `CC1CC(CC(=O)N2CC(F)(F)C2)CN(c2ncc(Cl)c(Nc3ccc4c(c3)c3c(c(=O)n4C)OCC(F)(F)[C@H](C4CC4)N3)n2)C1` (single isomer, unassigned) [Example 12x17b]: the IC50 is 13.2 nM. As to `C[C@H]1CN(c2ncc(Cl)c(Nc3ccc4c(c3)c3c(c(=O)n4C)OCC(F)(F)[C@H](C4CC4)N3)n2)CCC1(F)F` (single isomer, unassigned) [Example 14a, (S)-10-((5-chloro-2-((S)-4,4-difluoro-3-methylpiperidin-1-yl)pyrimidin-4-yl)amino)-2-cyclopropyl-3,3-difluoro-7-methyl-1,2,3,4-tetrahydro-[1,4]oxazepino[2,3-c]quinolin-6(7H)-one or (S)-10-((5-chloro-2-((R)-4,4-difluoro-3-methylpiperidin-1-yl)pyrimidin-4-yl)amino)-2-cyclopropyl-3,3-difluoro-7-methyl-1,2,3,4-tetrahydro-[1.4]oxazepino[2,3-c]quinolin-6(7H)-one], the “HTRF avg pIC50” value worked out at 7.81. In the case of `Cn1c(=O)c2c(c3cc(Nc4nc(N5CC(F)(F)C5)ncc4Cl)ccc31)N[C@@H](C1CC1)C(F)(F)CO2` [Example 1a, (S)-10-((5-chloro-2-(3,3-difluoroazetidin-1-yl)pyrimidin-4-yl)amino)-2-cyclopropyl-3,3-difluoro-7-methyl-1,2,3,4-tetrahydro-[1,4]oxazepino[2,3-c]quinolin-6(7H)-one], the IC50 was 10.2 nM. On to `Cn1c(=O)c2c(c3cc(Nc4nc(N5CCN(C6CC6)C(=O)C5)ncc4Cl)ccc31)N[C@@H](C1CC1)C(F)(F)CO2` [Example 1b, (S)-10-((5-chloro-2-(4-cyclopropyl-3-oxopiperazin-1-yl)pyrimidin-4-yl)amino)-2-cyclopropyl-3,3-difluoro-7-methyl-1,2,3,4-tetrahydro-[1,4]oxazepino[2,3-c]quinolin-6(7H)-one], for which the IC50 was 1.95 nM. On the same count and under the same terms, the figure for `C[C@H]1CN(c2ncc(Cl)c(Nc3ccc4c(c3)c3c(c(=O)n4C)OCC(F)(F)[C@H](C4CC4)N3)n2)CC(=O)N1C` [Example 1c, (S)-10-((5-chloro-2-((S)-3,4-dimethyl-5-oxopiperazin-1-yl)pyrimidin-4-yl)amino)-2-cyclopropyl-3,3-difluoro-7-methyl-1,2,3,4-tetrahydro-[1,4]oxazepino[2,3-c]quinolin-6(7H)-one] is 2.34 nM. Same read-out and setting: the figure for `Cn1c(=O)c2c(c3cc(Nc4nc(NCC(C)(C)O)ncc4Cl)ccc31)N[C@@H](C1CC1)C(F)(F)CO2` [Example 1d, (S)-10-((5-chloro-2-((2-hydroxy-2-methylpropyl)amino)pyrimidin-4-yl)amino)-2-cyclopropyl-3,3-difluoro-7-methyl-1,2,3,4-tetrahydro-[1,4]oxazepino[2,3-c]quinolin-6(7H)-one] is 3.63 nM; for `Cn1c(=O)c2c(c3cc(Nc4nc(N5C[C@H]6C[C@@H]5CO6)ncc4Cl)ccc31)N[C@@H](C1CC1)C(F)(F)CO2` [Example 1e, (S)-10-((2-((1R,4R)-2-oxa-5-azabicyclo[2.2.1]heptan-5-yl)-5-chloropyrimidin-4-yl)amino)-2-cyclopropyl-3,3-difluoro-7-methyl-1,2,3,4-tetrahydro-[1,4]oxazepino[2,3-c]quinolin-6(7H)-one] it is 3.24 nM. Regarding `CC(=O)N[C@H]1C[C@@H](C)CN(c2ncc(Cl)c(Nc3ccc4c(c3)c3c(c(=O)n4C)OCC(F)(F)[C@H](C4CC4)N3)n2)C1` [Example 1f, N-((3S,5R)-1-(5-chloro-4-(((S)-2-cyclopropyl-3,3-difluoro-7-methyl-6-oxo-1,2,3,4,6,7-hexahydro-[1,4]oxazepino[2,3-c]quinolin-10-yl)amino)pyrimidin-2-yl)-5-methylpiperidin-3-yl)acetamide], the “HTRF avg pIC50” value was found to be 8.60. Take `CC(=O)N[C@@H]1C[C@H](C)CN(c2ncc(Cl)c(Nc3ccc4c(c3)c3c(c(=O)n4C)OCC(F)(F)[C@H](C4CC4)N3)n2)C1` [Example 1g, N-((3R,5S)-1-(5-chloro-4-(((S)-2-cyclopropyl-3,3-difluoro-7-methyl-6-oxo-1,2,3,4,6,7-hexahydro-[1,4]oxazepino[2,3-c]quinolin-10-yl)amino)pyrimidin-2-yl)-5-methylpiperidin-3-yl)acetamide]: the IC50 is 3.16 nM.

Consider `C[C@@H]1C[C@H](N(C)C)CN(c2ncc(Cl)c(Nc3ccc4c(c3)c3c(c(=O)n4C)OCC(F)(F)[C@H](C4CC4)N3)n2)C1` [Example 1h, (S)-10-((5-chloro-2-((3S,5R)-3-(dimethylamino)-5-methylpiperidin-1-yl)pyrimidin-4-yl)amino)-2-cyclopropyl-3,3-difluoro-7-methyl-1,2,3,4-tetrahydro-[1,4]oxazepino[2,3-c]quinolin-6(7H)-one], for which the “HTRF avg pIC50” value amounted to 8.44. Still for that read-out and setting: the value for `Cn1c(=O)c2c(c3cc(Nc4nc(N5CCC[C@H](O)C5)ncc4Cl)ccc31)N[C@@H](C1CC1)C(F)(F)CO2` [Example 1i, (S)-10-((5-chloro-2-((S)-3-hydroxypiperidin-1-yl)pyrimidin-4-yl)amino)-2-cyclopropyl-3,3-difluoro-7-methyl-1,2,3,4-tetrahydro-[1,4]oxazepino[2,3-c]quinolin-6(7H)-one] was 8.51. On to `Cn1c(=O)c2c(c3cc(Nc4nc(N5CCC[C@@H](O)C5)ncc4Cl)ccc31)N[C@@H](C1CC1)C(F)(F)CO2` [Example 1j, (S)-10-((5-chloro-2-((R)-3-hydroxypiperidin-1-yl)pyrimidin-4-yl)amino)-2-cyclopropyl-3,3-difluoro-7-methyl-1,2,3,4-tetrahydro-[1,4]oxazepino[2,3-c]quinolin-6(7H)-one], for which the IC50 is 2.95 nM.

For the molecule `C[C@H]1CCCN(c2ncc(Cl)c(Nc3ccc4c(c3)c3c(c(=O)n4C)OCC(F)(F)[C@H](C4CC4)N3)n2)C1` [Example 1k, (S)-10-((5-chloro-2-((S)-3-methylpiperidin-1-yl)pyrimidin-4-yl)amino)-2-cyclopropyl-3,3-difluoro-7-methyl-1,2,3,4-tetrahydro-[1,4]oxazepino[2,3-c]quinolin-6(7H)-one], the IC50 was 38 nM.

On to `C[C@@H]1CCCN(c2ncc(Cl)c(Nc3ccc4c(c3)c3c(c(=O)n4C)OCC(F)(F)[C@H](C4CC4)N3)n2)C1` [Example 1l, (S)-10-((5-chloro-2-((R)-3-methylpiperidin-1-yl)pyrimidin-4-yl)amino)-2-cyclopropyl-3,3-difluoro-7-methyl-1,2,3,4-tetrahydro-[1,4]oxazepino[2,3-c]quinolin-6(7H)-one], for which the IC50 was 25.7 nM. On the same count and under the same terms, the value for `Cn1c(=O)c2c(c3cc(Nc4nc(N5CC(C)(F)C5)ncc4Cl)ccc31)N[C@@H](C1CC1)C(F)(F)CO2` [Example 1m, (S)-10-((5-chloro-2-(3-fluoro-3-methylazetidin-1-yl)pyrimidin-4-yl)amino)-2-cyclopropyl-3,3-difluoro-7-methyl-1,2,3,4-tetrahydro-[1,4]oxazepino[2,3-c]quinolin-6(7H)-one] was 9.33 nM; that for `Cn1c(=O)c2c(c3cc(Nc4nc(N5CC(C)(O)C5)ncc4Cl)ccc31)N[C@@H](C1CC1)C(F)(F)CO2` [Example 1n, (S)-10-((5-chloro-2-(3-hydroxy-3-methylazetidin-1-yl)pyrimidin-4-yl)amino)-2-cyclopropyl-3,3-difluoro-7-methyl-1,2,3,4-tetrahydro-[1,4]oxazepino[2,3-c]quinolin-6(7H)-one] was 13.8 nM.

Take `C[C@H]1C[C@@H](O)CN(c2ncc(F)c(Nc3ccc4c(c3)c3c(c(=O)n4C)OCC(F)(F)[C@H](C4CC4)N3)n2)C1` [Example 2a, (S)-2-cyclopropyl-3,3-difluoro-10-((5-fluoro-2-((3R,5S)-3-hydroxy-5-methylpiperidin-1-yl)pyrimidin-4-yl)amino)-7-methyl-1,2,3,4-tetrahydro-[1,4]oxazepino[2,3-c]quinolin-6(7H)-one]: the IC50 was 2.4 nM. On the same count and under the same terms, the value for `Cn1c(=O)c2c(c3cc(Nc4nc(N5CCC(F)(F)CC5)ncc4F)ccc31)N[C@@H](C1CC1)C(F)(F)CO2` [Example 2b, (S)-2-cyclopropyl-10-((2-(4,4-difluoropiperidin-1-yl)-5-fluoropyrimidin-4-yl)amino)-3,3-difluoro-7-methyl-1,2,3,4-tetrahydro-[1,4]oxazepino[2,3-c]quinolin-6(7H)-one] was 22.4 nM. On the same count and under the same terms, the figure for `[2H]C([2H])([2H])n1c(=O)c2c(c3cc(Nc4nc(N5C6CCC5COC6)ncc4Cl)cnc31)N[C@@H](C1CC1)C(F)(F)CO2` [Example 3a, (S)-10-((2-(3-oxa-8-azabicyclo[3.2.1]octan-8-yl)-5-chloropyrimidin-4-yl)amino)-2-cyclopropyl-3,3-difluoro-7-(methyl-d3)-1,2,3,4-tetrahydro-[1,4]oxazepino[2,3-c][1,8]naphthyridin-6(7H)-one] is 1.62 nM; for `Cc1noc(-c2cc(Nc3ccc4c(c3)c3c(c(=O)n4C)OCC(F)(F)[C@H](C4CC4)N3)c(Cl)cn2)n1` [Example 4a, (S)-10-((5-chloro-2-(3-methyl-1,2,4-oxadiazol-5-yl)pyridin-4-yl)amino)-2-cyclopropyl-3,3-difluoro-7-methyl-1,2,3,4-tetrahydro-[1,4]oxazepino[2,3-c]quinolin-6(7H)-one] it is 3.47 nM.

For `Cn1c(=O)c2c(c3cc(Nc4ccnc(Cl)c4Cl)ccc31)N[C@@H](C1CC1)C(F)(F)CO2` [Example 4c, (S)-2-cyclopropyl-10-((2,3-dichloropyridin-4-yl)amino)-3,3-difluoro-7-methyl-1,2,3,4-tetrahydro-[1,4]oxazepino[2,3-c]quinolin-6(7H)-one], the “HTRF avg pIC50” value came to 7.86. On the same count and under the same terms, the figure for `Cn1c(=O)c2c(c3cc(Nc4ccnc(Cl)c4F)ccc31)N[C@@H](C1CC1)C(F)(F)CO2` [Example 4d, (S)-10-((2-chloro-3-fluoropyridin-4-yl)amino)-2-cyclopropyl-3,3-difluoro-7-methyl-1,2,3,4-tetrahydro-[1,4]oxazepino[2,3-c]quinolin-6(7H)-one] is 7.78.

Source of the values: patent publication US12528826B2, “[1,4]oxazepino[2,3-c]quinolinone derivatives as BCL6 inhibitors” (Cancer Research Technology Limited, priority 2019, dated 2026).
